Experimental data from article PMC8443696, “Structural determinants and regulation of spontaneous activity in GABAA receptors” (Nature Communications, 2021).
“And” between values parts separate entries of the source, which are not always exact repeats. Equal entries are not always repeated. Where two headings read alike, the source gives them in different places.

How the values were obtained:
[1] = molecular target: T1, α4β3δ receptors (UniProt P18506+P63080+Q9D6F4); type: cell-based, mouse; conditions: α4β3δ GABA (Fig. 1d); GABA 500 µM, PTX 100 µM; individual cells
T1 construct: expressed in transfected cells; host or cells: HEK 293
Text: (§1) All components were obtained from Life Technologies.
(§2) Currents were acquired with Clampex ver.
(§3) Cells were voltage clamped at −40 mV.
(§4) For assessment of the efficacy of allosteric modulators on spontaneous activity, compounds were briefly applied (3–5 s) to achieve steady-state currents (IMod). […] The IMod was summed with IPTX (or subtracted for inhibitory modulators) and the Ispont calculated, as described by Eq. (2):2 Ispont(%)=[(IPTX+IMod)/(IPTX+IMax)]×100……………………………………

[2] = system: T2, α1β3γ2L receptors; assay: Quantification of spontaneous activity (Ispont) in HEK cells, whole-cell patch clamp; type: cell-based, mouse; conditions: α1β3γ2L GABA (Fig. 1d); GABA 500 µM, PTX 100 µM; individual cells
T2 construct: expressed in transfected cells; host or cells: HEK 293
Text: as §1, §2, §3, §4

[3] = molecular target: T1, α4β3δ receptors; type: cell-based, mouse
Text: as §1, §2, §3
(§5) All data were normalised to the fitted maximum response.

[4] = system: T3, α4β3 receptors; assay: Agonist-evoked whole-cell currents and their modulation by Zn2+ / DS2 in HEK cells;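 as to GABA current, Supp. Fig. 2b: GABA applied at 0.3 µM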; type: cell-based, mouse; set-up: GABA current, Supp. Fig. 2b / GABA + DS2 current, Supp. Fig. 2b / GABA current, Supp. Fig. 2a: unit not given here
T3 construct: expressed in transfected cells; host or cells: HEK 293
Text: as §1, §2, §3

[5] = molecular target: T4, α4β3γ2L receptors (Mus musculus, UniProt P22723+P63080+Q9D6F4); assay: Agonist-evoked whole-cell currents and their modulation by Zn2+ in HEK cells; type: cell-based; conditions: GABA alone, individual cells
T4 construct: expressed in transfected cells; host or cells: HEK 293
Text: as §1, §2, §3

[6] = molecular target: α4β3^K279Tγ2L receptors (Mus musculus, UniProt P22723+P63080+Q9D6F4, K304T)
Text: as §1, §2, §3, §5

[7] = molecular target: α4β3^DNTKδ receptors (UniProt P18506+P63080+Q9D6F4, E204T/G196D/K198N/R205K)
Text: as §1, §2, §3, §5

[8] = molecular target: T1, α4β3δ receptors; assay: Agonist-evoked whole-cell currents and their modulation by Zn2+ / DS2 in HEK cells; type: cell-based, mouse; conditions: GABA alone, individual cells;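 as to GABA current, Supp. Fig. 2b: GABA applied at 0.3 µM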
Text: as §1, §2, §3

[9] = molecular target: T4, α4β3γ2L receptors; assay: GABA concentration-response curves, whole-cell patch clamp in HEK cells; type: cell-based
Text: as §1, §2, §3, §5

`NCCCC(=O)O` [GABA, γ-aminobutyric acid] was tested, and the “Ispont, IMax from GABA” value [1] was 6.076% and 14.3782% and 18.0154% and 11.8804% and 19.3061% and 35.4037% and 16.1707%, the “Ispont, IMax from GABA” value [2] was 0.9134% and 0.3206% and 5.267% and 3.501% and 0.7067% and 1.417% and the “GABA current normalised to the fitted maximum response” value (“GABA current normalised” below) ([3]; [GABA] 0.1, individual cells) was 0.5073 and 0.405 and 0.6131. For the same compound, the nH ([3]; individual cells) was 0.63 and 0.57 and 0.45 and 0.59 and 0.53 and 0.44 and 0.46 and 0.51, the Hill coefficient ([3]; mean ± SEM, n = 9) was 0.5 ± 0.02 and the “Whole-cell current activated by GABA” value ([4]; 500 µM GABA, n = 7) was 237 ± 95 pA. The “GABA current, Supp. Fig. 2a” value ([4]; GABA alone, individual cells) was 0.31 and 0.16 and 0.22 and 0.23 and 0.064, the “GABA current, Supp. Fig. 2b” value ([4]; GABA alone, individual cells) was 0.04 and 0.13 and 0.11 and 0.10 and 0.27 and the “GABA current, Supp. Fig. 2a” value [5] was 1.69 and 2.20 and 3.55 and 12.70. For the same compound, the “GABA current normalised” value ([6]; α4β3K279Tγ2L, [GABA] 0.001, individual cells) was 0.2519 and 0 (3×) and 0.1524 and 0.248, the “GABA current normalised” value ([6]; α4β3K279Tγ2L, [GABA] 0.003, individual cells) was 0.1404 and 0.2434 and 0.2001 and 0.06943 and 0 (2×) and the “GABA current normalised” value ([6]; α4β3K279Tγ2L, [GABA] 0.01, individual cells) was 0.2519 and 0.1217 and 0.166 and 0.124 and 0.0823 and 0.03949. The “GABA current normalised” value ([6]; α4β3K279Tγ2L, [GABA] 0.03, individual cells) was 0.2267 and 0.2011 and 0.2911 and 0.2232 and 0.2097 and 0.1075, the “GABA current normalised” value ([6]; α4β3K279Tγ2L, [GABA] 0.1, individual cells) was 0.3277 and 0.4723 and 0.5922 and 0.2125 and 0.4931 and 0.3266 and the “GABA current normalised” value ([6]; α4β3K279Tγ2L, [GABA] 0.3, individual cells) was 0.407 and 0.5504 and 0.3093 and 1.165 and 0.3595. The “GABA current normalised” value ([6]; α4β3K279Tγ2L, [GABA] 1, individual cells) was 0.6167 and 0.8427 and 0.9144 and 0.4437 and 0.6991 and 0.6708, the “GABA current normalised” value ([6]; α4β3K279Tγ2L, [GABA] 3, individual cells) was 0.7288 and the nH ([6]; α4β3K279Tγ2L, individual cells) was 0.3987 and 0.6455 and 0.6824 and 0.44 and 1.925 and 0.7169. For the same compound, the Hill coefficient ([6]; α4β3^K279Tγ2L, mean ± SEM, n = 6) was 0.8 ± 0.2, the “GABA current normalised” value ([7]; α4β3DNTKδ, [GABA] 0.01, individual cells) was 0.0007434 and 0.002452 and 0.03107 and 0.001383 and 0.00433 and 0.003861 and 0.002036 and 0.01162 and 0 and 0.01893 and the “GABA current normalised” value ([7]; α4β3DNTKδ, [GABA] 0.03, individual cells) was 0.007062 and 0.01195 and 0.04826 and 0.01383 and 0.009382 and 0.004413 and 0.007126 and 0.02054 and 0.004552 and 0.04327. For the same compound, the “GABA current normalised” value ([7]; α4β3DNTKδ, [GABA] 0.1, individual cells) was 0.04328 and 0.0495 and 0.09628 and 0.06221 and 0.03922 and 0.04794 and 0.04133 and 0.1252 and 0.03443 and 0.105, the “GABA current normalised” value ([7]; α4β3DNTKδ, [GABA] 0.3, individual cells) was 0.1541 and 0.16 and 0.2541 and 0.193 and 0.1198 and 0.1414 and 0.1295 and 0.114 and 0.2315 and the “GABA current normalised” value ([7]; α4β3DNTKδ, [GABA] 1, individual cells) was 0.3807 and 0.3987 and 0.5261 and 0.4351 and 0.4134 and 0.5199 and 0.3786 and 0.5032. For the same compound, the “GABA current normalised” value ([7]; α4β3DNTKδ, [GABA] 3, individual cells) was 0.6642 and 0.6962 and 0.7428 and 0.6422 and 0.5604 and 0.7146 and 0.5958 and 0.7349 and 0.6146 and 0.6907, the “GABA current normalised” value ([7]; α4β3DNTKδ, [GABA] 10, individual cells) was 0.8725 and 0.8838 and 0.9794 and 0.868 and 0.8251 and 0.879 and 0.7932 and 0.8504 and 0.9182 and 0.913 and the “GABA current normalised” value ([7]; α4β3DNTKδ, [GABA] 30, individual cells) was 0.9699 and 0.9833 and 0.9744 and 0.9032 and 0.8901 and 0.9131 and 0.9034 and 0.7914 and 0.976 and 0.9404. The “GABA current normalised” value ([7]; α4β3DNTKδ, [GABA] 100, individual cells) was 0.9851 and 0.9946 and 0.9484 and 0.9857 and 0.9989 and 1.0526 and 1.007 and 0.9834 and 1.041 and 0.9979, the “GABA current normalised” value ([7]; α4β3DNTKδ, [GABA] 300, individual cells) was 0.994 and 0.9896 and 0.9955 and 1.01 and 0.9818 and 1.0044 and 0.9828 and 1.081 and 0.9165 and 0.972 and the nH ([7]; α4β3DNTKδ, individual cells) was 0.91 and 0.96 and 1.1 and 0.94 and 0.75 and 1.12 and 1.06 and 1. The Hill coefficient ([7]; α4β3^DNTKδ, mean ± SEM, n = 10) was 1.0 ± 0.04, the “GABA current, Supp. Fig. 2a” value [8] was 0.41 and 0.73 and 1.32 and 2.78 and the “GABA current, Supp. Fig. 2b” value [8] was 0.53 and 0.27 and 0.065 and 0.26 and 0.65. For the same compound, the “GABA current normalised” value ([9]; [GABA] 0.01, individual cells) was 0.001664 and 0.002276 and 0.001669 and 0.01171 and 0.01147, the “GABA current normalised” value ([9]; [GABA] 0.03, individual cells) was 0.005144 and 0.004138 and 0.00402 and 0.01346 and 0.01822 and the “GABA current normalised” value ([9]; [GABA] 0.1, individual cells) was 0.01452 and 0.01076 and 0.01069 and 0.03174 and 0.04395. For the same compound, the “GABA current normalised” value ([9]; [GABA] 0.3, individual cells) was 0.02596 and 0.02427 and 0.06574 and 0.085, the “GABA current normalised” value ([9]; [GABA] 1, individual cells) was 0.09711 and 0.06608 and 0.07868 and 0.1536 and 0.188 and the “GABA current normalised” value ([9]; [GABA] 3, individual cells) was 0.2349 and 0.1582 and 0.203 and 0.3143 and 0.3127. For the same compound, the “GABA current normalised” value ([9]; [GABA] 10, individual cells) was 0.4431 and 0.3362 and 0.4922 and 0.6263 and 0.5927, the “GABA current normalised” value ([9]; [GABA] 30, individual cells) was 0.548 and 0.6886 and 0.7844 and 0.7581 and the “GABA current normalised” value ([9]; [GABA] 100, individual cells) was 0.7417 and 0.7257 and 0.7724 and 0.8852 and 0.8968. For the same compound, the “GABA current normalised” value ([9]; [GABA] 300, individual cells) was 0.8265 and 0.8069 and 0.8364 and 0.9453 and 0.9104, the “GABA current normalised” value ([9]; [GABA] 1000, individual cells) was 0.9797 and 0.9449 and 0.994 and 1.0249 and 1.018 and the “GABA current normalised” value ([9]; [GABA] 3000, individual cells) was 0.9857 and 0.9907 and 1.044 and 0.9972 and 0.9754. For the same compound, the nH ([9]; individual cells) was 0.6867 and 0.7293 and 0.7792 and 0.8713 and 0.7855 and the Hill coefficient ([9]; mean ± SEM, n = 5) was 0.8 ± 0.03.
